Like-named read-outs stand apart in the source and are kept apart here.
Test system: HCV replicon
Assay: HCV replicon luciferase reporter assay
Assay type: cell-based
Set-up: scale not given here
Settings: Table 5
Procedure: The inhibitory activity of certain exemplary compounds of the invention was confirmed using an HCV replicon assay. The HCV replicon can include such features as the HCV IRES, the HCV 3′ untranslated region, selected HCV genes encoding HCV polypeptides, selectable markers, and a reporter gene such as luciferase, GFP, etc. In the assay, actively dividing replicon-comprising cells were seeded at a density of between about 5,000 and 7,500 cells/well onto 96 well plates (about 90 μl of cells per well) and incubated at 37° C. and 5% CO2 for 24 hours. Then, the test compound (in a volume of about 10 μL) was added at various concentrations to each well and the cells were incubated for an additional 24-48 hours. The cells were harvested, and HCV replication or translation was monitored via a reporter assay, e.g., a luciferase reporter assay. The media was aspirated from each cell and Bright-Glo ([…].) luciferase assay reagents were added to each well according to the manufacturer's instructions. In this assay, the amount of test compound that yielded a 50% reduction in luciferase activity (IC50) was determined.

[1] = Hepatitis C virus, read-out: IC50

| Structure (SMILES) | IC50 [1] | IC50 (the head prints only IC50, b387 says Tables 5 and 6 hold Replicon reporter and Western blot results) |
| --- | --- | --- |
| c1ccc(COc2cccc(CNCCCNc3nsc4ccccc34)c2)cc1 [Compound 328, N^1-(benzo[d]isothiazol-3-yl)-N^3-(3-(benzyloxy)benzyl)propane-1,3-diamine] | < 5 µM |  |
| c1ccc(-c2ncc(CNCCCNc3nsc4ccccc34)[nH]2)cc1 [Compound 329, N^1-(benzo[d]isothiazol-3-yl)-N^3-((2-phenyl-1H-imidazol-4-yl)methyl)propane-1,3-diamine] | < 5 µM |  |
| c1ccc(-c2[nH]c3ccccc3c2CNCCCNc2nsc3ccccc23)cc1 [Compound 330, N^1-(benzo[d]isothiazol-3-yl)-N^3-((2-phenyl-1H-indol-3-yl)methyl)propane-1,3-diamine] | < 5 µM |  |
| COc1ccc(-c2ccc(S(=O)(=O)NCCCNc3nsc4ccccc34)cc2)cc1 [Compound 331, N-(3-(benzo[d]isothiazol-3-ylamino)propyl)-4′-methoxybiphenyl-4-sulfonamide] | < 5 µM |  |
| COc1ccc(-c2ccc(S(=O)(=O)NCCCNc3nsc4ccccc34)cc2)cc1OC [Compound 332, N-(3-(benzo[d]isothiazol-3-ylamino)propyl)-3′,4′-dimethoxybiphenyl-4-sulfonamide] | < 5 µM |  |
| O=S(=O)(NCCCNc1nsc2ccccc12)c1ccc(-c2ccc(OC(F)(F)F)cc2)cc1 [Compound 333, N-(3-(benzo[d]isothiazol-3-ylamino)propyl)-4′-(trifluoromethoxy)biphenyl-4-sulfonamide] | < 5 µM |  |
| COC(=O)c1ccc(-c2ccc(S(=O)(=O)NCCCNc3nsc4ccccc34)cc2)cc1 [Compound 334, methyl 4′-(N-(3-(benzo[d]isothiazol-3-ylamino)propyl)sulfamoyl)biphenyl-4-carboxylate] | < 5 µM |  |
| O=S(=O)(NCCCNc1nsc2ccccc12)c1ccc(-c2ccccc2C(F)(F)F)cc1 [Compound 335, N-(3-(benzo[d]isothiazol-3-ylamino)propyl)-2′-(trifluoromethyl)biphenyl-4-sulfonamide] | < 5 µM |  |
| FC(F)(F)Oc1ccc(-c2ccc(CNCCCNc3nsc4ccccc34)cc2)cc1 [Compound 336, N^1-(benzo[d]isothiazol-3-yl)-N^3-((4′-(trifluoromethoxy)biphenyl-4-yl)methyl)propane-1,3-diamine] | < 5 µM |  |
| c1ccc2oc(CNCCCNc3nsc4ccccc34)cc2c1 [Compound 337, N^1-(benzo[d]isothiazol-3-yl)-N^3-(benzofuran-2-ylmethyl)propane-1,3-diamine] | < 5 µM |  |
| c1ccc2c(NCCCNCc3ccc(N4CCCC4)cc3)nsc2c1 [Compound 338, N^1-(benzo[d]isothiazol-3-yl)-N^3-(4-(pyrrolidin-1-yl)benzyl)propane-1,3-diamine] | < 5 µM |  |
| COc1ccc(-c2ccc(CN(CCCNc3nsc4ccccc34)C(=O)CS(C)(=O)=O)cc2)cc1 [Compound 339, N-(3-(benzo[d]isothiazol-3-ylamino)propyl)-N-((4′-methoxybiphenyl-4-yl)methyl)-2-(methylsulfonyl)acetamide] | < 5 µM |  |
| COc1ccc(-c2ccc(CN(CCCNC3=NS(=O)(=O)c4ccccc43)S(=O)(=O)c3cn(C)c(C)n3)cc2)cc1 [Compound 340, N-{3-[(1,1-dioxido-1,2-benzisothiazol-3-yl)amino]propyl}-N-[(4′-methoxybiphenyl-4-yl)methyl]-1,2-dimethyl-1H-imidazole-4-sulfonamide] | > 5 µM |  |
| COc1cccc(CNCCCNc2nsc3ccccc23)c1 [Compound 343, N^1-(benzo[d]isothiazol-3-yl)-N^3-(3-methoxybenzyl)propane-1,3-diamine] | < 5 µM |  |
| COc1cccc(S(=O)(=O)N(C)CCCN(C)c2nsc3ccccc23)c1 [Compound 344, N-(3-(benzo[d]isothiazol-3-yl(methyl)amino)propyl)-3-methoxy-N-methylbenzenesulfonamide] | > 5 µM |  |
| CN(CCCN(C)S(=O)(=O)c1ccccc1C(F)(F)F)c1nsc2ccccc12 [Compound 345, N-(3-(benzo[d]isothiazol-3-yl(methyl)amino)propyl)-N-methyl-2-(trifluoromethyl)benzenesulfonamide] | > 5 µM |  |
| O=C1CCCN1c1ccc(CNCCCNc2nsc3ccccc23)cc1 [Compound 346, 1-(4-((3-(benzo[d]isothiazol-3-ylamino)propylamino)methyl)phenyl)pyrrolidin-2-one] | > 5 µM |  |
| COc1ccc(-c2ccc(CN(C)CCCN(C)c3nsc4ccccc34)cc2)cc1 [Compound 347, N^1-(benzo[d]isothiazol-3-yl)-N^3-((4′-methoxybiphenyl-4-yl)methyl)-N^1,N^3-dimethylpropane-1,3-diamine] | > 5 µM |  |
| O=C(N[C@@H](C(=O)NCCNc1nsc2ccccc12)c1ccccc1)c1ccc(Cl)cc1 [Compound 348, (R)-N-(2-(2-(benzo[d]isothiazol-3-ylamino)ethylamino)-2-oxo-1-phenylethyl)-4-chlorobenzamide] | < 5 µM |  |
| O=C(NCCNc1nsc2ccccc12)c1ccc(F)cc1F [Compound 349, N-(2-(benzo[d]isothiazol-3-ylamino)ethyl)-2,4-difluorobenzamide] | < 5 µM |  |

| Structure (SMILES) | IC50 [1] | IC50 (the head prints only IC50, b387 says Tables 5 and 6 hold Replicon reporter and Western blot results) |
| --- | --- | --- |
| O=C(NCCNc1nsc2ccccc12)c1cc(F)ccc1F [Compound 350, N-(2-(benzo[d]isothiazol-3-ylamino)ethyl)-2,5-difluorobenzamide] | < 5 µM |  |
| O=C(NCCNc1nsc2ccccc12)c1ccccc1C(F)(F)F [Compound 351, N-(2-(benzo[d]isothiazol-3-ylamino)ethyl)-2-(trifluoromethyl)benzamide] | < 5 µM |  |
| O=C(NCCNc1nsc2ccccc12)c1cc(F)ccc1C(F)(F)F [Compound 352, N-(2-(benzo[d]isothiazol-3-ylamino)ethyl)-5-fluoro-2-(trifluoromethyl)benzamide] | > 5 µM |  |
| O=C(NCCNc1nsc2ccccc12)c1cc(F)cc(C(F)(F)F)c1 [Compound 353, N-(2-(benzo[d]isothiazol-3-ylamino)ethyl)-3-fluoro-5-(trifluoromethyl)benzamide] | < 5 µM |  |
| O=C(NCCNc1nsc2ccccc12)c1ccc(C(F)(F)F)cc1F [Compound 354, N-(2-(benzo[d]isothiazol-3-ylamino)ethyl)-2-fluoro-4-(trifluoromethyl)benzamide] | < 5 µM |  |
| O=C(NCCNc1nsc2ccccc12)c1ccc(C(F)(F)F)c(F)c1 [Compound 355, N-(2-(benzo[d]isothiazol-3-ylamino)ethyl)-3-fluoro-4-(trifluoromethyl)benzamide] | < 5 µM |  |
| O=C(NCCNc1nsc2ccccc12)c1ccc(C(F)(F)F)cc1C(F)(F)F [Compound 356, N-(2-(benzo[d]isothiazol-3-ylamino)ethyl)-2,4-bis(trifluoromethyl)benzamide] | < 5 µM |  |
| O=C(NCCNc1nsc2ccccc12)c1cc(C(F)(F)F)ccc1C(F)(F)F [Compound 357, N-(2-(benzo[d]isothiazol-3-ylamino)ethyl)-2,5-bis(trifluoromethyl)benzamide] | < 5 µM |  |
| O=C(NCCNc1nsc2ccccc12)c1c(F)cccc1C(F)(F)F [Compound 358, N-(2-(benzo[d]isothiazol-3-ylamino)ethyl)-2-fluoro-6-(trifluoromethyl)benzamide] | > 5 µM |  |
| O=C(NCCNc1nsc2ccccc12)c1ccc(F)c(F)c1 [Compound 359, N-(2-(benzo[d]isothiazol-3-ylamino)ethyl)-3,4-difluorobenzamide] |  | A, B |
| COc1ccc(-c2ccc(C(=O)NCCNc3nsc4ccccc34)cc2)cc1 [Compound 360, N-(2-(benzo[d]isothiazol-3-ylamino)ethyl)-4′-methoxybiphenyl-4-carboxamide] | < 5 µM |  |
| COc1ccc(-c2ccc(C(=O)NCCNc3nsc4ccccc34)cc2)cc1OC [Compound 361, N-(2-(benzo[d]isothiazol-3-ylamino)ethyl)-3′,4′-dimethoxybiphenyl-4-carboxamide] | < 5 µM |  |
| COc1ccc(Cl)cc1-c1ccc(C(=O)NCCNc2nsc3ccccc23)cc1 [Compound 362, N-(2-(benzo[d]isothiazol-3-ylamino)ethyl)-5′-chloro-2′-methoxybiphenyl-4-carboxamide] | < 5 µM |  |
| Cc1ccc(OC(C)C)c(-c2ccc(C(=O)NCCNc3nsc4ccccc34)cc2)c1 [Compound 363, N-(2-(benzo[d]isothiazol-3-ylamino)ethyl)-2′-isopropoxy-5′-methylbiphenyl-4-carboxamide] | < 5 µM |  |
| COc1cccc(-c2ccc(C(=O)NCCNc3nsc4ccccc34)cc2)c1OC [Compound 364, N-(2-(benzo[d]isothiazol-3-ylamino)ethyl)-2′,3′-dimethoxybiphenyl-4-carboxamide] | < 5 µM |  |
| COc1ccc(C)cc1-c1ccc(C(=O)NCCNc2nsc3ccccc23)cc1 [Compound 365, N-(2-(benzo[d]isothiazol-3-ylamino)ethyl)-2′-methoxy-5′-methylbiphenyl-4-carboxamide] | < 5 µM |  |
| COc1ccc(-c2ccc(C(=O)NCCNc3nsc4ccccc34)cc2)c(C)c1 [Compound 366, N-(2-(benzo[d]isothiazol-3-ylamino)ethyl)-4′-methoxy-2′-methylbiphenyl-4-carboxamide] | < 5 µM |  |
| CCCOc1ccc(F)cc1-c1ccc(C(=O)NCCNc2nsc3ccccc23)cc1 [Compound 367, N-(2-(benzo[d]isothiazol-3-ylamino)ethyl)-5′-fluoro-2′-propoxybiphenyl-4-carboxamide] | < 5 µM |  |
| COc1cc(F)ccc1-c1cccc(C(=O)NCCCNc2nsc3ccccc23)c1 [Compound 368, N-(3-(benzo[d]isothiazol-3-ylamino)propyl)-4′-fluoro-6′-methoxybiphenyl-3-carboxamide] | < 5 µM |  |

Reference: US7776847B2, “Benzisothiazoles useful for treating or preventing HCV infection” (priority 2005, dated 2010)
